Source: article PMC6970549, “Orai1 Channel Inhibition Preserves Left Ventricular Systolic Function and Normal Ca^2+ Handling After Pressure Overload” (Circulation, 2020)

Target: Orai1 (Homo sapiens, UniProt Q96D31)
Experiment: patch-clamp electrophysiology in Orai1-transfected HEK293 cells
Assay type: cell-based
Text: patch-clamp electrophysiology in Orai1-transfected HEK293 cells on Orai1 | Electrophysiological recordings in Orai1-transfected HEK293 cells also confirmed that JPIII is a potent Orai1 inhibitor with an IC50 of […]

Chain of Orai1 (Q96D31 whole entry): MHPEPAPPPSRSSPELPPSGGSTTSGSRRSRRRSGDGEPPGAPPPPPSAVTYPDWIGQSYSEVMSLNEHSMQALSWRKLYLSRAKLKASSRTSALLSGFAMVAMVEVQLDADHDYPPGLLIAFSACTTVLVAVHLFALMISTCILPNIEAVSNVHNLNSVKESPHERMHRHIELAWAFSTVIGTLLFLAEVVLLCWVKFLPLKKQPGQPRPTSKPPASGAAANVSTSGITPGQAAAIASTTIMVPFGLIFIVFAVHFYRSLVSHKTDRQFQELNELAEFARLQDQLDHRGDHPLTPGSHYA

IC50: 244 ± 39 nM
SMILES: COc1ccc(OC)c(-c2ccc(NCc3ccncc3)cc2)c1 [JPIII, 4-(2,5-dimethoxyphenyl)-N-[(pyridin-4-yl)methyl]aniline]
